Laboratory results reported in patent US11135234B2, “Effective aminoglycoside antibiotic for multidrug-resistant bacteria” (MICROBIAL CHEMISTRY RESEARCH FOUNDATION, priority 2015, dated 2021).
Converted amounts (≈) assume the structure as drawn.

Experiments:
[1] = system: S. aureus RN4220; test: MIC, agar plate dilution method, S. aureus RN4220; assay type: cell-based, Staphylococcus aureus; settings: for MIC: Staphylococcus aureus, RN4220, S. aureus RN4220, Sensitive bacterium, read-out: minimal inhibitory concentration (MIC); for minimal inhibitory concentration (MIC): S. aureus RN4220, Sensitive bacterium
In short: (§1)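 Minimal inhibitory concentration (μg/mL) was determined by agar plate dilution following the Japan Society of Chemotherapy method.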

[2] = system: S. aureus RN4220/pMS520; test: MIC, agar plate dilution method, S. aureus RN4220/pMS520; assay type: cell-based, Staphylococcus aureus; settings: for MIC: Staphylococcus aureus, MRSA, read-out: minimal inhibitory concentration (MIC), S. aureus RN4220/pMS520, MRSA; for minimal inhibitory concentration (MIC): S. aureus RN4220/pMS520, MRSA
In short: as §1

[3] = system: S. aureus MF490; test: MIC, agar plate dilution method, S. aureus MF490; assay type: cell-based, Staphylococcus aureus; settings: for MIC: Staphylococcus aureus, MRSA, read-out: minimal inhibitory concentration (MIC); for minimal inhibitory concentration (MIC): S. aureus MF490, MRSA
In short: as §1

[4] = system: E. faecium ATCC19434; test: MIC, agar plate dilution method, E. faecium ATCC19434; assay type: cell-based, Enterococcus faecium; settings: for MIC: Enterococcus faecium, ATCC19434, E. faecium ATCC19434, read-out: minimal inhibitory concentration (MIC); for minimal inhibitory concentration (MIC): E. faecium ATCC19434
In short: as §1

[5] = system: E. coli JM109/pMW218; test: MIC, agar plate dilution method, E. coli JM109/pMW218; assay type: cell-based, Escherichia coli; settings: for MIC: Escherichia coli, JM109/PMW218, E. coli JM109/pMW218, Sensitive bacterium, read-out: minimal inhibitory concentration (MIC); for minimal inhibitory concentration (MIC): E. coli JM109/pMW218, Sensitive bacterium
In short: as §1

[6] = system: K. pneumoniae ATCC BAA-1705; test: MIC, agar plate dilution method, K. pneumoniae ATCC BAA-1705; assay type: cell-based, Klebsiella pneumoniae; settings: for MIC: Klebsiella pneumoniae, ATCCBAA1705, K. pneumoniae ATCC BAA-1705, KPC-producing strain, read-out: minimal inhibitory concentration (MIC); for minimal inhibitory concentration (MIC): K. pneumoniae ATCC BAA-1705, KPC-producing strain
In short: as §1

[7] = system: K. pneumoniae ATCC BAA-2146; test: MIC, agar plate dilution method, K. pneumoniae ATCC BAA-2146; assay type: cell-based, Klebsiella pneumoniae; settings: for MIC: Klebsiella pneumoniae, ATCCBAA2146, K. pneumoniae ATCC BAA-2146, NDM-producing strain, read-out: minimal inhibitory concentration (MIC); for minimal inhibitory concentration (MIC): K. pneumoniae ATCC BAA-2146, NDM-producing strain
In short: as §1

[8] = system: A. baumannii ATCC BAA-1710; test: MIC, agar plate dilution method, A. baumannii ATCC BAA-1710; assay type: cell-based, Acinetobacter baumannii; settings: for MIC: Acinetobacter baumannii, ATCCBAA1710, A. baumannii ATCC BAA-1710, MDRA, read-out: minimal inhibitory concentration (MIC); for minimal inhibitory concentration (MIC): A. baumannii ATCC BAA-1710, MDRA
In short: as §1

[9] = system: S. marcescens TH-0447; test: MIC, agar plate dilution method, S. marcescens TH-0447; assay type: cell-based, Serratia marcescens; settings: for MIC: Serratia marcescens, TH0447, S. marcescens TH-0447, AMK-resistant, read-out: minimal inhibitory concentration (MIC); for minimal inhibitory concentration (MIC): S. marcescens TH-0447, AMK-resistant
In short: as §1

[10] = system: S. marcescens GN6944; test: MIC, agar plate dilution method, S. marcescens GN6944; assay type: cell-based, Serratia marcescens; settings: S. marcescens GN6944, GM-resistant; for MIC: Serratia marcescens, read-out: minimal inhibitory concentration (MIC)
In short: as §1

[11] = system: P. aeruginosa PAO1; test: MIC, agar plate dilution method, P. aeruginosa PAO1; assay type: cell-based, Pseudomonas aeruginosa; settings: for MIC: Pseudomonas aeruginosa, PAO1, P. aeruginosa PAO1, Sensitive bacterium, read-out: minimal inhibitory concentration (MIC); for minimal inhibitory concentration (MIC): P. aeruginosa PAO1, Sensitive bacterium
In short: as §1

[12] = system: P. aeruginosa PAO1/GN315; test: MIC, agar plate dilution method, P. aeruginosa PAO1/GN315; assay type: cell-based, Pseudomonas aeruginosa; settings: for MIC: Pseudomonas aeruginosa, read-out: minimal inhibitory concentration (MIC), P. aeruginosa PAO1/GN315, AMK-resistant; for minimal inhibitory concentration (MIC): P. aeruginosa PAO1/GN315, AMK-resistant
In short: as §1

[13] = system: P. aeruginosa MSC17707; test: MIC, agar plate dilution method, P. aeruginosa MSC17707; assay type: cell-based, Pseudomonas aeruginosa; settings: for MIC: Pseudomonas aeruginosa, MSC17707, P. aeruginosa MSC17707, AMK-resistant, read-out: minimal inhibitory concentration (MIC); for minimal inhibitory concentration (MIC): P. aeruginosa MSC17707, AMK-resistant
In short: as §1

[14] = system: P. aeruginosa MSC01035; test: MIC, agar plate dilution method, P. aeruginosa MSC01035; assay type: cell-based, Pseudomonas aeruginosa; settings: P. aeruginosa MSC01035, ABK-resistant; for MIC: Pseudomonas aeruginosa, read-out: minimal inhibitory concentration (MIC)
In short: as §1

Structure (SMILES): CNC1C(O[C@H]2OC(CO)[C@@H](NC(=N)N)[C@H](O)C2O)O[C@H]2CC(N)[C@@H](O[C@H]3CC(O)[C@H](N)CC3N)OC2C1O (stereo partly drawn) [Compound S1-e, 4″-deamino-5-deoxy-4″-guanidinoapramycin]
- MIC [1]: 1 µg/mL (≈ 1.77 µM)
- MIC [2]: 1 µg/mL (≈ 1.77 µM)
- MIC [3]: 4 µg/mL (≈ 7.07 µM)
- MIC [4]: 4 µg/mL (≈ 7.07 µM)
- MIC [5]: 0.5 µg/mL (≈ 0.884 µM)
- MIC [6]: 2 µg/mL (≈ 3.54 µM)
- MIC [7]: 0.5 µg/mL (≈ 0.884 µM)
- MIC [8]: 4 µg/mL (≈ 7.07 µM)
- MIC [9]: 4 µg/mL (≈ 7.07 µM)
- MIC [10]: 4 µg/mL (≈ 7.07 µM)
- MIC [11]: 4 µg/mL (≈ 7.07 µM)
- MIC [12]: 4 µg/mL (≈ 7.07 µM)
- MIC [13]: 8 µg/mL (≈ 14.1 µM)
- MIC [14]: 8 µg/mL (≈ 14.1 µM)

Structure (SMILES): CNC1C(O[C@H]2OC(CO)[C@@H](NC)[C@H](O)C2O)O[C@H]2CC(N)[C@@H](O[C@@H]3C(N)C[C@@H](N)C(O)[C@H]3O)OC2C1O (stereo partly drawn) [Compound S1-f, 5-epi-4″-N-methylapramycin]
- minimal inhibitory concentration (MIC) [1]: 2 µg/mL (≈ 3.61 µM)
- minimal inhibitory concentration (MIC) [2]: 2 µg/mL (≈ 3.61 µM)
- minimal inhibitory concentration (MIC) [3]: 8 µg/mL (≈ 14.5 µM)
- minimal inhibitory concentration (MIC) [4]: 16 µg/mL (≈ 28.9 µM)
- minimal inhibitory concentration (MIC) [5]: 1 µg/mL (≈ 1.81 µM)
- minimal inhibitory concentration (MIC) [6]: 2 µg/mL (≈ 3.61 µM)
- minimal inhibitory concentration (MIC) [7]: 1 µg/mL (≈ 1.81 µM)
- minimal inhibitory concentration (MIC) [8]: 8 µg/mL (≈ 14.5 µM)
- minimal inhibitory concentration (MIC) [9]: 8 µg/mL (≈ 14.5 µM)
- minimal inhibitory concentration (MIC) [10]: 4 µg/mL (≈ 7.23 µM)
- minimal inhibitory concentration (MIC) [11]: 4 µg/mL (≈ 7.23 µM)
- minimal inhibitory concentration (MIC) [12]: 4 µg/mL (≈ 7.23 µM)
- minimal inhibitory concentration (MIC) [13]: 8 µg/mL (≈ 14.5 µM)
- minimal inhibitory concentration (MIC) [14]: 8 µg/mL (≈ 14.5 µM)

Structure (SMILES): CNC1C(O[C@H]2OC(CO)[C@@H](NCCN)[C@H](O)C2O)O[C@H]2CC(N)[C@@H](O[C@@H]3C(N)C[C@@H](N)C(O)[C@H]3O)OC2C1O (stereo partly drawn) [Compound S1-g, 4″-N-(2-aminoethyl)-5-epiapramycin]
- MIC [1]: 4 µg/mL (≈ 6.87 µM)
- MIC [2]: 2 µg/mL (≈ 3.43 µM)
- MIC [3]: 8 µg/mL (≈ 13.7 µM)
- MIC [4]: 16 µg/mL (≈ 27.5 µM)
- MIC [5]: 1 µg/mL (≈ 1.72 µM)
- MIC [6]: 2 µg/mL (≈ 3.43 µM)
- MIC [7]: 2 µg/mL (≈ 3.43 µM)
- MIC [8]: 4 µg/mL (≈ 6.87 µM)
- MIC [9]: 8 µg/mL (≈ 13.7 µM)
- MIC [10]: 8 µg/mL (≈ 13.7 µM)
- MIC [11]: 4 µg/mL (≈ 6.87 µM)
- MIC [12]: 4 µg/mL (≈ 6.87 µM)
- MIC [13]: 4 µg/mL (≈ 6.87 µM)
- MIC [14]: 8 µg/mL (≈ 13.7 µM)

Structure (SMILES): CNC1C(O[C@H]2OC(CO)[C@@H](NCCCN)[C@H](O)C2O)O[C@H]2CC(N)[C@@H](O[C@@H]3C(N)C[C@@H](N)C(O)[C@H]3O)OC2C1O (stereo partly drawn) [Compound S1-h, 4″-N-(3-aminopropyl)-5-epiapramycin]
- minimal inhibitory concentration (MIC) [1]: 2 µg/mL (≈ 3.35 µM)
- minimal inhibitory concentration (MIC) [2]: 2 µg/mL (≈ 3.35 µM)
- minimal inhibitory concentration (MIC) [3]: 8 µg/mL (≈ 13.4 µM)
- minimal inhibitory concentration (MIC) [4]: 16 µg/mL (≈ 26.8 µM)
- minimal inhibitory concentration (MIC) [5]: 1 µg/mL (≈ 1.68 µM)
- minimal inhibitory concentration (MIC) [6]: 2 µg/mL (≈ 3.35 µM)
- minimal inhibitory concentration (MIC) [7]: 1 µg/mL (≈ 1.68 µM)
- minimal inhibitory concentration (MIC) [8]: 8 µg/mL (≈ 13.4 µM)
- minimal inhibitory concentration (MIC) [9]: 8 µg/mL (≈ 13.4 µM)
- minimal inhibitory concentration (MIC) [10]: 8 µg/mL (≈ 13.4 µM)
- minimal inhibitory concentration (MIC) [11]: 4 µg/mL (≈ 6.7 µM)
- minimal inhibitory concentration (MIC) [12]: 4 µg/mL (≈ 6.7 µM)
- minimal inhibitory concentration (MIC) [13]: 4 µg/mL (≈ 6.7 µM)
- minimal inhibitory concentration (MIC) [14]: 8 µg/mL (≈ 13.4 µM)

Structure (SMILES): CN[C@@H]1[C@@H](O[C@H]2O[C@H](CO)[C@@H](NC(CN)CN)[C@H](O)[C@H]2O)O[C@H]2C[C@@H](N)[C@@H](O[C@H]3[C@@H](O)[C@@H](O)[C@H](N)C[C@@H]3N)O[C@@H]2[C@@H]1O [Compound S1-i, 4″-N-(1,3-diaminopropan-2-yl)-5-epiapramycin]
- minimal inhibitory concentration (MIC) [1]: 2 µg/mL (≈ 3.27 µM)
- minimal inhibitory concentration (MIC) [2]: 2 µg/mL (≈ 3.27 µM)
- minimal inhibitory concentration (MIC) [3]: 4 µg/mL (≈ 6.54 µM)
- minimal inhibitory concentration (MIC) [4]: 4 µg/mL (≈ 6.54 µM)
- minimal inhibitory concentration (MIC) [5]: 1 µg/mL (≈ 1.63 µM)
- minimal inhibitory concentration (MIC) [6]: 1 µg/mL (≈ 1.63 µM)
- minimal inhibitory concentration (MIC) [7]: 2 µg/mL (≈ 3.27 µM)
- minimal inhibitory concentration (MIC) [8]: 4 µg/mL (≈ 6.54 µM)
- minimal inhibitory concentration (MIC) [9]: 8 µg/mL (≈ 13.1 µM)
- minimal inhibitory concentration (MIC) [10]: 4 µg/mL (≈ 6.54 µM)
- minimal inhibitory concentration (MIC) [11]: 2 µg/mL (≈ 3.27 µM)
- minimal inhibitory concentration (MIC) [12]: 4 µg/mL (≈ 6.54 µM)
- minimal inhibitory concentration (MIC) [13]: 2 µg/mL (≈ 3.27 µM)
- minimal inhibitory concentration (MIC) [14]: 4 µg/mL (≈ 6.54 µM)

Structure (SMILES): CN[C@@H]1[C@@H](O[C@H]2O[C@H](CO)[C@@H](NC(=N)N)[C@H](O)[C@H]2O)O[C@H]2C[C@@H](N)[C@@H](O[C@H]3[C@@H](O)[C@@H](O)[C@H](N)C[C@@H]3N)O[C@@H]2[C@@H]1O [Compound S1-j, 4″-deamino-5-epi-4″-guanidinoapramycin]
- minimal inhibitory concentration (MIC) [1]: 2 µg/mL (≈ 3.44 µM)
- minimal inhibitory concentration (MIC) [2]: 1 µg/mL (≈ 1.72 µM)
- minimal inhibitory concentration (MIC) [3]: 4 µg/mL (≈ 6.88 µM)
- minimal inhibitory concentration (MIC) [4]: 8 µg/mL (≈ 13.8 µM)
- minimal inhibitory concentration (MIC) [5]: 0.5 µg/mL (≈ 0.86 µM)
- minimal inhibitory concentration (MIC) [6]: 1 µg/mL (≈ 1.72 µM)
- minimal inhibitory concentration (MIC) [7]: 1 µg/mL (≈ 1.72 µM)
- minimal inhibitory concentration (MIC) [8]: 4 µg/mL (≈ 6.88 µM)
- minimal inhibitory concentration (MIC) [9]: 4 µg/mL (≈ 6.88 µM)
- minimal inhibitory concentration (MIC) [10]: 4 µg/mL (≈ 6.88 µM)
- minimal inhibitory concentration (MIC) [11]: 2 µg/mL (≈ 3.44 µM)
- minimal inhibitory concentration (MIC) [12]: 4 µg/mL (≈ 6.88 µM)
- minimal inhibitory concentration (MIC) [13]: 4 µg/mL (≈ 6.88 µM)
- minimal inhibitory concentration (MIC) [14]: 4 µg/mL (≈ 6.88 µM)
